Data from patent US12595253B2, “Benzamides of pyrazolylamino-pyrimidinyl derivatives, and compositions and methods thereof” (LYNK PHARMACEUTICALS CO. LTD., priority 2019, dated 2026).

Assays:
Format in all cases: biochemical
JAK2 = target: T1, JAK2 (Homo sapiens, UniProt O60674); assay: JAK2 microfluidic kinase assay (Caliper EZ Reader II, FAM labeled peptide substrate)
T1 construct: purchased Carna Biosciences
Outline: (§1)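 Compounds, serially diluted 3-fold from 5 μM, were preincubated 10 min with enzyme at ambient temperature before reaction in HEPES/Brij35/MgCl2/DTT buffer (1% DMSO final), tuned to 10% peptide conversion. After EDTA stop, FAM-peptide phosphorylation was measured by Caliper EZ Reader II; IC50 fitted from percent-inhibition curves.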

JAK1 = target: T2, JAK1 (Homo sapiens, UniProt P23458); assay: JAK1 microfluidic kinase assay (Caliper EZ Reader II, FAM labeled peptide substrate); conditions: IC50 JAK1 (5 nM) (1 m MATP), JAK1 5 nM, 1 mM ATP
T2 construct: purchased Carna Biosciences
Outline: as §1

TYK2 = target: T3, TYK2 (Homo sapiens, UniProt P29597); assay: TYK2 microfluidic kinase assay (Caliper EZ Reader II, FAM labeled peptide substrate); conditions: IC50 TYK2 ([…]) (1 mM ATP), TYK2 […], 1 mM ATP
T3 construct: purchased Carna Biosciences
Experimental: Compounds were tested against JAK1, JAK2, JAK2V617F and TYK2. Assay Formats: JAK activity was determined in the reaction buffer 50 mM HEPES, 0.01% Brij35, 10 mM MgCl2, 2 mM DTT by a microfluidic assay. The phosphorylation of a FAM labeled peptide substrate was monitored in the Caliper EZ Reader II (Perkin Elmer). The assay condition for each batch of enzyme (Carna Biosciences) was optimized to obtain 10% conversion rate of peptide substrate. The test compounds were dissolved in DMSO to a stock concentration of 10 mM. 3-fold serially diluted compounds with top concentration of 5 μM were pre-incubated with JAK1, JAK2, JAK2V617F or TYK2 at indicated concentrations for 10 min at ambient temperature. The final DMSO concentration of assay mixture was 1%. […] The reaction was stopped by adding 50 mM EDTA. The reaction time for JAK1, JAK2, JAK2V617F and TYK2 was 120 min, 20 min, 30 min and 10 min, respectively. […] And the well without compound but with equivalent DMSO was defined as no inhibition. The percent inhibition was calculated by the following formula. % Inhibition=(Conversionmax−Conversionsample)/(Conversionmax−Conversionmin)*100 • Conversionmax means the conversion rate in the positive well without addition of compound • Conversionmin means the conversion rate in the well without addition of enzyme • Conversionsample means the conversion rate of test compounds The dose-response (percent inhibition) curve was plotted and IC50 values were determined by GraphPad software.

[1] = IC50 JAK2 ([…]) (1 mM ATP), 1 mM ATP

T2 sequence (P23458 whole entry): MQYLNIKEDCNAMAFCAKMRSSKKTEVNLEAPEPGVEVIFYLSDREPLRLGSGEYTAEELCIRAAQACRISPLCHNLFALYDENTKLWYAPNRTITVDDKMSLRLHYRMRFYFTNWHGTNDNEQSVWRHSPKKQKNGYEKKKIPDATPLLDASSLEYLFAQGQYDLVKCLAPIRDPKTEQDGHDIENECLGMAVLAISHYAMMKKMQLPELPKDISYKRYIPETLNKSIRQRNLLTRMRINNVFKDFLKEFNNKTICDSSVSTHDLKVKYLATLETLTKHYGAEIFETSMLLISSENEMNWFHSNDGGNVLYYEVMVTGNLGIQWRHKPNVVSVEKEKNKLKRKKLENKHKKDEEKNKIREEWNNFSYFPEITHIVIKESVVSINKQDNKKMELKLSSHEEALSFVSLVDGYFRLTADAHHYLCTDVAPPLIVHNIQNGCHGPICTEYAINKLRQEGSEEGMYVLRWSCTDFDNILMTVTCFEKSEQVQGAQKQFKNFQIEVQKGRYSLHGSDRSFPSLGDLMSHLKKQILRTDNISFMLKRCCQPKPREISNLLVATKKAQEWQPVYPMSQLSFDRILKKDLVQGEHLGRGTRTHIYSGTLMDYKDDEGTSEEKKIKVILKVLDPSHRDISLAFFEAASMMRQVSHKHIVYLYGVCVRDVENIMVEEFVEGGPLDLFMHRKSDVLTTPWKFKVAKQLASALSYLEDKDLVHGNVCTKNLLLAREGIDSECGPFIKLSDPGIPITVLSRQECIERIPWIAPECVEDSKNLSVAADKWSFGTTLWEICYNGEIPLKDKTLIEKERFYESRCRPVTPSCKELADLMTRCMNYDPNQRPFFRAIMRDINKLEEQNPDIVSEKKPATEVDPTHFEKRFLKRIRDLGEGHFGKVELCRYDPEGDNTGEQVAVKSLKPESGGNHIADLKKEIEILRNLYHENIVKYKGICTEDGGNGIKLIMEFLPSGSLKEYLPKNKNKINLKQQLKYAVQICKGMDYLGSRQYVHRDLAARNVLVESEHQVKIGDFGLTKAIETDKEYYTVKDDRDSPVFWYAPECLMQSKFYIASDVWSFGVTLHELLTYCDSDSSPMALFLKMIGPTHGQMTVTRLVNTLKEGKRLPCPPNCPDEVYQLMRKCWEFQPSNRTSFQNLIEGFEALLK
T3 sequence (P29597 whole entry): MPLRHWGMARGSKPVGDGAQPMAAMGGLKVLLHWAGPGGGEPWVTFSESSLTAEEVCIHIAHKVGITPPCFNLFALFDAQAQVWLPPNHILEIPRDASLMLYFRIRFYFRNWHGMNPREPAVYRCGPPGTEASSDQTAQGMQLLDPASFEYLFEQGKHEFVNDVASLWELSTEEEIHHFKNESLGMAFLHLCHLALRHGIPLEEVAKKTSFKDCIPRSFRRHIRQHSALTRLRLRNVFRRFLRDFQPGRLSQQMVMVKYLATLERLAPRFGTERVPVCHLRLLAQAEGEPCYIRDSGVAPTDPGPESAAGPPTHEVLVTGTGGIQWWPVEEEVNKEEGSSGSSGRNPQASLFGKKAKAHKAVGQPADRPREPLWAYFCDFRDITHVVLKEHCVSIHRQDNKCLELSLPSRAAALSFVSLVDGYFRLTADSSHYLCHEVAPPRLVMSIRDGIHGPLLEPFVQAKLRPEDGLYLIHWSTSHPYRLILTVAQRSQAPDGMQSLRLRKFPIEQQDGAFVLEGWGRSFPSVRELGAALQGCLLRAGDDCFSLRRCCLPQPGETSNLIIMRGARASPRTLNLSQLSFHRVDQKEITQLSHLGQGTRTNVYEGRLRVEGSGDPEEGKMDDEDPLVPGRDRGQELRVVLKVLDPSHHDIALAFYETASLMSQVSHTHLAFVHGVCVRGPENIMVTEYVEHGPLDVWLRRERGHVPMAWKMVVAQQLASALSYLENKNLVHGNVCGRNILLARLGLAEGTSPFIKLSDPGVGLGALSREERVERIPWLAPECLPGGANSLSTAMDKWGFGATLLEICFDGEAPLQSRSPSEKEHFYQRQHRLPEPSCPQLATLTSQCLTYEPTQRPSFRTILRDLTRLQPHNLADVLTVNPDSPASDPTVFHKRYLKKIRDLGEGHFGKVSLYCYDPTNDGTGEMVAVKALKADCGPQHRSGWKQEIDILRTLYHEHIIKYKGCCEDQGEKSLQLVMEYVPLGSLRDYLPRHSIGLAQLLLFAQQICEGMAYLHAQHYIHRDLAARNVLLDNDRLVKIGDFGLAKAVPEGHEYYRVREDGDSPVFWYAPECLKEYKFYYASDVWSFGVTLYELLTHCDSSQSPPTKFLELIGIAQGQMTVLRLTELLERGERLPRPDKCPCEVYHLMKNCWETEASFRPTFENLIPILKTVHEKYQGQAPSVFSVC
T1 sequence (O60674 whole entry): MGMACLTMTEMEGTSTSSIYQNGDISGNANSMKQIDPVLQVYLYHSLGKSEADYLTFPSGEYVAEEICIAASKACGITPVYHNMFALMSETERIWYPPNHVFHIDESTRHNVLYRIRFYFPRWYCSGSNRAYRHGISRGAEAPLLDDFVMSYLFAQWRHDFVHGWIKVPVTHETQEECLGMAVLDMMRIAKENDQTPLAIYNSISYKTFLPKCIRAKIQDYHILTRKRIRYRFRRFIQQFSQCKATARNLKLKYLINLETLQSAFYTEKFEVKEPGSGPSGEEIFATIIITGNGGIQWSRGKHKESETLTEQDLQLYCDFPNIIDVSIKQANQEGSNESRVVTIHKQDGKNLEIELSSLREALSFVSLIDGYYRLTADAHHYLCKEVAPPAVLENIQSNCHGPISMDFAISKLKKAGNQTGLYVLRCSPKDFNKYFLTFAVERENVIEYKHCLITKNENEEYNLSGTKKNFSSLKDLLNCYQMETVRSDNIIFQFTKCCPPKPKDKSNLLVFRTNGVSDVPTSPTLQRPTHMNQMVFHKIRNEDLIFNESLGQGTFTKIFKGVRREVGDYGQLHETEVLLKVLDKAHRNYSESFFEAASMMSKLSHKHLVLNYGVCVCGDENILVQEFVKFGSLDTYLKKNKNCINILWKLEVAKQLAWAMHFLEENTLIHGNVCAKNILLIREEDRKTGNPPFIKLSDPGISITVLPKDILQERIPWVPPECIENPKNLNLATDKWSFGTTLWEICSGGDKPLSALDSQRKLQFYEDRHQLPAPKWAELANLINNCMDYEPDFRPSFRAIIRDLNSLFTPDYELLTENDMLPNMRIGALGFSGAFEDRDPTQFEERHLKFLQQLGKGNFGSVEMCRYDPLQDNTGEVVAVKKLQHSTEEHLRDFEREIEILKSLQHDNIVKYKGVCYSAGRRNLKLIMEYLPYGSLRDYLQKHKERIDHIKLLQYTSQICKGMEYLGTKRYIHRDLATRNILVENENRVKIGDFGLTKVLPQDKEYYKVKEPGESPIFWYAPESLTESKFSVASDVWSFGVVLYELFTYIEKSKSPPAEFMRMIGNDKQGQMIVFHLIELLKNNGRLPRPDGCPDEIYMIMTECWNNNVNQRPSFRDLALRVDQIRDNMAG

Row | SMILES | IC50 (JAK2; [1]) [nM] | IC50 (JAK1) [nM] | IC50 (TYK2) [nM] | IC50 (JAK2; IC50 JAK2 ([…]) (Km ATP), Km ATP) [nM]
1 | COC[C@@H](C#N)NC(=O)c1ccc(-c2nc(Nc3cnn(CCO)c3)ncc2C)cc1 [Example 221, (R)—N-(1-cyano-2-methoxyethyl)-4-(2-((1-(2-hydroxyethyl)-1H-pyrazol-4-yl)amino)-5-methylpyrimidin-4-yl)benzamide] | 54.8 | 10.4 | 62.3 | –
2 | Cc1cnc(Nc2cnn(C3CC3)c2)nc1-c1ccc(C(=O)N(C)CC#N)cc1 [Example 108, N-(cyanomethyl)-4-(2-((1-cyclopropyl-1H-pyrazol-4-yl)amino)-5-methylpyrimidin-4-yl)-N-methylbenzamide] | 461 | 628 | 1150 | –
3 | Cc1cnc(Nc2cnn(CC#N)c2)nc1-c1ccc(C(=O)N[C@H](C)C#N)cc1 [Example 54, (R)—N-(1-cyanoethyl)-4-(2-((1-(cyanomethyl)-1H-pyrazol-4-yl)amino)-5-methylpyrimidin-4-yl)benzamide] | 210 | 34.3 | 304 | –
4 | Cc1cnc(Nc2cnn(C3CCNCC3)c2)nc1-c1ccc(C(=O)NCC#N)cc1 [Example 212, N-(cyanomethyl)-4-(5-methyl-2-((1-(piperidin-4-yl)-1H-pyrazol-4-yl)amino)pyrimidin-4-yl)benzamide] | 0.47 | 7.81 | 76.4 | –
5 | CCC[C@@H](C#N)NC(=O)c1ccc(-c2nc(Nc3cnn(C4CCNCC4)c3)ncc2C)cc1 [Example 175, (S)—N-(1-Cyanobutyl)-4-(5-methyl-2-((1-(piperidin-4-yl)-1H-pyrazol-4-yl)amino)pyrimidin-4-yl)benzamide] | 0.51 | 1.48 | 2.22 | –
6 | Cc1cnc(Nc2cnn(C3CCC(O)CC3)c2)nc1-c1ccc(C(=O)N[C@@H](C)C#N)cc1 (stereo partly drawn) [Example 209, (S)—N-(1-cyanoethyl)-4-(2-((1-(4-hydroxycyclohexyl)-1H-pyrazol-4-yl)amino)-5-methylpyrimidin-4-yl)benzamide] | < 0.25 | 14.3 | 9.11 | –
7 | Cc1cnc(Nc2cnn(CCC#N)c2)nc1-c1ccc(C(=O)N[C@@H](C)C#N)cc1 [Example 216, (S)—N-(1-cyanoethyl)-4-(2-((1-(2-cyanoethyl)-1H-pyrazol-4-yl)amino)-5-methylpyrimidin-4-yl)benzamide] | 40.9 | 4.88 | 74 | –
8 | CCC[C@@H](C#N)NC(=O)c1ccc(-c2nc(Nc3cnn(C4CCN(C)CC4)c3)ncc2C)cc1 [Example 176, (S)—N-(1-cyanobutyl)-4-(5-methyl-2-((1-(1-methylpiperidin-4-yl)-1H-pyrazol-4-yl)amino)pyrimidin-4-yl)benzamide] | 0.85 | 1.35 | 1.1 | –
9 | C[C@@H](C#N)NC(=O)c1ccc(-c2nc(Nc3cnn(C4CC(C)(C)OC(C)(C)C4)c3)ncc2Cl)cc1 [Example 206, (S)-4-(5-Chloro-2-((1-(2,2,6,6-tetramethyltetrahydro-2H-pyran-4-yl)-1H-pyrazol-4-yl)amino)pyrimidin-4-yl)-N-(1-cyanoethyl)benzamide] | < 0.25 | 16.7 | 0.55 | –
10 | CC[C@@H](C#N)NC(=O)c1ccc(-c2nc(Nc3cnn(CCC#N)c3)ncc2C)cc1 [Example 217, (S)-4-(2-((1-(2-cyanoethyl)-1H-pyrazol-4-yl)amino)-5-methylpyrimidin-4-yl)-N-(1-cyanopropyl)benzamide] | 39.8 | 2.71 | 40.9 | –
11 | N#CCNC(=O)c1ccc(-c2nc(Nc3cnn(C4CCN(C(=O)CO)CC4)c3)ncc2Cl)cc1 [Example 218, 4-(5-Chloro-2-((1-(1-(2-hydroxyacetyl)piperidin-4-yl)-1H-pyrazol-4-yl)amino)pyrimidin-4-yl)-N-(cyanomethyl)benzamide] | < 0.25 | 13 | 58 | –
12 | CC[C@@H](C#N)NC(=O)c1ccc(-c2nc(Nc3cnn(C4CCCN(C)C4)c3)ncc2C)cc1 (stereo partly drawn) [Example 211, N—((S)-1-cyanopropyl)-4-(5-methyl-2-((1-(1-methylpiperidin-3-yl)-1H-pyrazol-4-yl)amino)pyrimidin-4-yl)benzamide] | 0.66 | 20.5 | 58.1 | –
13 | C[C@@H](C#N)NC(=O)c1ccc(-c2nc(Nc3cnn(CCC#N)c3)ncc2Cl)cc1 [Example 189, (S)-4-(5-Chloro-2-((1-(2-cyanoethyl)-1H-pyrazol-4-yl)amino)pyrimidin-4-yl)-N-(1-cyanoethyl)benzamide] | 44 | 4.02 | 85 | –
14 | N#CCNC(=O)c1ccc(-c2nc(Nc3cnn(CC#N)c3)ncc2Cl)cc1 [Example 41, 4-(5-Chloro-2-((1-(cyanomethyl)-1H-pyrazol-4-yl)amino)pyrimidin-4-yl)-N-(cyanomethyl)benzamide] | 31.8 | 6.45 | 71.2 | –
15 | Cc1cnc(Nc2cnn(C3CCNCC3)c2)nc1-c1ccc(C(=O)N[C@H](C#N)C2CC2)cc1 [Example 156, (S)—N-(cyano(cyclopropyl)methyl)-4-(5-methyl-2-((1-(piperidin-4-yl)-1H-pyrazol-4-yl)amino)pyrimidin-4-yl)benzamide] | 0.79 | 2.93 | 3.15 | –
16 | C[C@H](C#N)NC(=O)c1ccc(-c2nc(Nc3cnn(C4CCN(C)CC4)c3)ncc2Cl)cc1 [Example 58, (R)-4-(5-Chloro-2-((1-(1-methylpiperidin-4-yl)-1H-pyrazol-4-yl)amino)pyrimidin-4-yl)-N-(1-cyanoethyl)benzamide] | 42.2 | 34.8 | 272 | –
17 | Cc1cnc(Nc2cn[nH]c2)nc1-c1ccc(C(=O)N[C@@H](C)C#N)cc1 [Example 199, (S)-4-(2-((1H-Pyrazol-4-yl)amino)-5-methylpyrimidin-4-yl)-N-(1-cyanoethyl)benzamide] | 30.8 | – | 30.2 | –
18 | Cc1cnc(Nc2cnn(CCO)c2)nc1-c1ccc(C(=O)N[C@H](C#N)C(C)C)cc1 [Example 191, (S)—N-(1-cyano-2-methylpropyl)-4-(2-((1-(2-hydroxyethyl)-1H-pyrazol-4-yl)amino)-5-methylpyrimidin-4-yl)benzamide] | 41.3 | 1.63 | 53.9 | –
19 | C[C@@H](C#N)NC(=O)c1ccc(-c2nc(Nc3cnn(CC(N)=O)c3)ncc2Cl)cc1 [Example 47, (S)-4-(2-((1-(2-amino-2-oxoethyl)-1H-pyrazol-4-yl)amino)-5-chloropyrimidin-4-yl)-N-(1-cyanoethyl)benzamide] | 36.6 | 5.67 | 50.6 | –
20 | CC[C@@H](C#N)NC(=O)c1ccc(-c2nc(Nc3cnn(C4CCNCC4)c3)ncc2C)cc1 [Example 171, (S)—N-(1-Cyanopropyl)-4-(5-methyl-2-((1-(piperidin-4-yl)-1H-pyrazol-4-yl)amino)pyrimidin-4-yl)benzamide] | 0.78 | 1.84 | 0.88 | –
21 | CC[C@@H](C#N)NC(=O)c1ccc(-c2nc(Nc3cnn(C(C)C(F)(F)F)c3)ncc2C)cc1 (single isomer, unassigned) [Example 226, N—((S)-1-Cyanopropyl)-4-(5-methyl-2-((1-((S*)-1,1,1-trifluoropropan-2-yl)-1H-pyrazol-4-yl)amino)pyrimidin-4-yl)benzamide] | 32.2 | 4.24 | 57.3 | –
22 | Cc1cnc(Nc2cnn(C3CCN(C(=O)CO)CC3)c2)nc1-c1ccc(C(=O)NCC#N)cc1 [Example 207, N-(cyanomethyl)-4-(2-((1-(1-(2-hydroxyacetyl)piperidin-4-yl)-1H-pyrazol-4-yl)amino)-5-methylpyrimidin-4-yl)benzamide] | < 0.25 | 15.2 | 50.6 | –
23 | Cc1cnc(Nc2ccn(C)n2)nc1-c1ccc(C(=O)NCC#N)cc1 [Example 107, N-(Cyanomethyl)-4-(5-methyl-2-((1-methyl-1H-pyrazol-3-yl)amino)pyrimidin-4-yl)benzamide] | 1150 | 2310 | > 5000 | 28.1
24 | C[C@@H](C#N)NC(=O)c1ccc(-c2nc(Nc3cnn(C4CCN(C(=O)CO)CC4)c3)ncc2Cl)cc1 [Example 214, (S)-4-(5-chloro-2-((1-(1-(2-hydroxyacetyl)piperidin-4-yl)-1H-pyrazol-4-yl)amino)pyrimidin-4-yl)-N-(1-cyanoethyl)benzamide] | < 0.25 | 15.6 | 59.6 | –
25 | CC[C@@H](C#N)NC(=O)c1ccc(-c2nc(Nc3cnn(C4CCCNC4)c3)ncc2C)cc1 (stereo partly drawn) [Example 210, N—((S)-1-cyanopropyl)-4-(5-methyl-2-((1-(piperidin-3-yl)-1H-pyrazol-4-yl)amino)pyrimidin-4-yl)benzamide] | 2.39 | 11.4 | 88.2 | –
